Reference: patent US11406622B2, “Glaucocalyxin a derivative, pharmaceutically acceptable salt thereof, or pharmaceutical composition thereof and uses thereof in preparation of drugs for treating psoriasis” (SUZHOU PHARMAVAN CO., LTD., priority 2017, dated 2022)
Several values for one entry are separate records, joined by “and”; a condition that tells them apart may be missing. Identical values can stand only once.

What was measured:
BALB/c mice = test: Acute toxicity in BALB/c mice, single tail-vein injection (Example 9); assay type: in vivo, mouse; conditions: single intravenous injection
Text: In this example, Compound 23 and Compound 24 were detected for their acute toxicities, and the detection method was as follows.
Experimental procedure: 40 BALB/c mice, half male and half female, were randomly divided into groups after weight measurement. The weight of an individual should be within the range of the average body weight±20%. Animals should be allowed to acclimatize to the environment for at least 5 days before the test, and healthy (if female, it must be un-pregnant) mice were selected as test animals. The main inspections during the acclimatization period included: whether it met the quality indicators required at the time of ordering; general state check; and whether the weight reached the weight range required by the test. Unqualified abnormal animals were not included in this test. A single tail-vein injection was administrated to the mice at a low, medium, or high dose, which was 5 mg/kg, 10 mg/kg, or 40 mg/kg respectively according to a blank preparation pre-test. An equal volume of vehicle was intravenously injected to establish a control group.
Mice were observed once respectively at 0 to 2 hours and 4 to 6 hours after each administration. If toxic symptoms occurred, the number of observations could be increased. (2) Gross anatomy observation: All the surviving mice in each group were dissected and observed on the 8th day of the experiment. The abnormal organs and tissues found in the observation of administration sites and in the gross anatomy observation that might be related to the test samples were photographed and recorded. (3) Disposal of dying animals: The state of the mouse and the observation time were recorded, and the body weight was measured. (4) Disposal of dead animals: The time of death or the time when the death was found was recorded, the body weight was measured, and then the dissection was quickly performed for gross observation to speculate the cause of death.

mouse spleen lymphocytes = test: ConA-induced proliferation of mouse spleen lymphocytes, MTT (Example 8); assay type: cell-based; conditions: 48 h, 5 μg/mL ConA
Procedure: In this example, the glaucocalyxin A derivatives and pharmaceutically acceptable salts thereof were detected for the effect thereof on ConA-induced proliferation of mouse spleen lymphocytes.
2×10^7/mL cell suspension was prepared and a 5 μg/μL ConA stock solution was added thereto at a final concentration of 5 μg/mL. The resulting mixture was inoculated into a 96-well culture plate at 0.1 mL per well. Then 0.1 mL of test compound at different concentrations was added to each well. Triplicate or quadruplicate wells were set up for each group, and a vehicle control group (without compound), a stimulant control group (with ConA, without compound, and without vehicle), a cell control group (without ConA, without compound, and without vehicle), and a blank medium control group (without cells, a well for null adjustment) were also set up, and cultured at 37° C., 5% CO2 for 48 h. MTT solution at 5 mg/mL was added at 20 μl per well, and cultured for an additional 4 hours. The culture plate was taken out and centrifuged at 1000 rpm for 10 min. The supernatant of each well was aspirated, and 100 μL of SDS cell lysis solution was added to each well, and cultured overnight. On the next day, the absorbance at 550 nm (OD550nm) was measured on an enzyme-linked immunoassay analyzer. The results were expressed as the mean OD550nm value of the triplicates or quadruplicates±standard deviation (x±sd). SPSS software version 17.0 was used for statistical analysis of the mean values, that is, the vehicle group was compared with the stimulant group, and the test group of each compound concentration was compared with the corresponding vehicle control group. The cell survival rate of each group was calculated according to the mean value for the compound treatment group and the mean value for the vehicle control group, that is, the cell survival rate (%)=the mean value for the compound treatment group/the mean value for the vehicle control group×100%. A linear regression equation was obtained by plotting the cell survival rate of each group against the concentration of the test compound, statistical test of the correlation coefficient was conducted, and then the IC50 value was determined.

## Br.C=C1C(=O)C23C(O)CC4C(C)(C)c5nc(N(C)C)sc5CC4(C)C2CCC1C3O (centres unmarked) [Compound 23]
BALB/c mice
  comparative safety: safer than Compound 24
BALB/c mice; 5 mg/kg
  toxic side effects: No obvious toxic side effects
  weight loss and decreased diet: no significant weight loss and decreased diet
BALB/c mice; 10 mg/kg
  toxic side effects: No obvious toxic side effects
  weight loss and decreased diet: no significant weight loss and decreased diet
BALB/c mice; 40 mg/kg
  toxic side effects: No obvious toxic side effects
  weight loss and decreased diet: no significant weight loss and decreased diet
Mouse spleen lymphocytes; 0.78125 μg/mL
  OD550nm value (x ± sd): 1.14
  Survival rate (%): 98%
Mouse spleen lymphocytes; 1.5625 μg/mL
  OD550nm value (x ± sd): 1.18
  Survival rate (%): 101%
Mouse spleen lymphocytes; 3.125 μg/mL
  OD550nm value (x ± sd): 0.52
  Survival rate (%): 45%
Mouse spleen lymphocytes; 6.25 μg/mL
  OD550nm value (x ± sd): 0.29
  Survival rate (%): 25%
Mouse spleen lymphocytes; 12.5 μg/mL
  OD550nm value (x ± sd): 0.07
  Survival rate (%): 6%
Mouse spleen lymphocytes; 25 μg/mL
  OD550nm value (x ± sd): 0.02
  Survival rate (%): 2%
Mouse spleen lymphocytes; 50 μg/mL
  OD550nm value (x ± sd): 0.02
  Survival rate (%): 2%
Mouse spleen lymphocytes; 100 μg/mL
  OD550nm value (x ± sd): 0.02
  Survival rate (%): 1%
Mouse spleen lymphocytes; linear regression
  IC50: ~9.41 µM and 9.41 µM
  IC50 (μg/mL): IC50 = 4.00 μg/mL
Mouse spleen lymphocytes; range of concentrations tested
  effect on ConA-induced proliferation of mouse spleen lymphocytes (in words): significant effect
